Molecules are shown by their SMILES.

The source of these data is the METLIN SMRT retention time set (Domingo-Almenara et al. 2019).

The nature of the series: gradient 5% acetonitrile 3 min, to 50% in 2 min, to 85% in 15 min, held 3 min, 100 µL/min. The settings on record: column: Zorbax Extend-C18 2.1 x 50 mm; eluents: water / acetonitrile, 0.1% formic acid. Summed up: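 Data were gathered over 3 months by HPLC coupled to a quadrupole time-of-flight mass spectrometer, operated in positive and negative ionization mode. Mixtures of ~100 pure standards ran on a Zorbax Extend-C18 column (2.1 × 50 mm, 1.8 μm) at 100 μL/min, with water and acetonitrile each containing 0.1% formic acid and dead and dwell volumes of 40 μL and 900 μL. Retention time was read from adduct peaks picked by computer and checked manually.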
Regarding `Cc1ccc(S(=O)(=O)N2CCC(CCC(=O)O)CC2)cc1`, the RP-LC retention time amounted to 799 s.

`Cc1cc(Cl)ccc1-n1ncc2c(N3CCN(C)CC3)ncnc21` returned an RP-LC retention time of 633 s.

`COc1ccc(NC(=O)NCC23CCCC=C2N(C)C(=O)CC3)cc1` (stereo not drawn): the RP-LC retention time was 740 s. Next, `Brc1ccc(-c2noc(CSc3nccn3-c3ccccc3)n2)cc1`: 1030 s; `CCn1cc(CN2CCC(C(=O)NC(C)c3ccccc3)CC2)c2cc(Cl)ccc21` (stereo not drawn): 753 s; `Cc1ccc(S(=O)(=O)N2CCC3(CC2)NCCCN=C3NC2CCCC2)cc1Cl`: 814 s. Next, `O=C(NCc1ccncc1)C1CCN(C(=O)c2ncn3c2COC(c2ccc(Cl)cc2)C3)CC1` (stereo not drawn): 645 s; `Cc1cc(C)n2c(Nc3ccc(C(C)C)cc3)c(-c3ccc(Cl)cc3)nc2n1`: 985 s; `O=C(c1csc(S(=O)(=O)N2CCC(C(=O)N3CCCCCC3)CC2)c1)N1CCCCCC1`: 876 s.

In turn, `CCCCN1CCN(C(=O)C2=NN(c3ccc(C)cc3)c3ncccc3S2(=O)=O)CC1` gave an RP-LC retention time of 685 s. As for `CC(C)S(=O)(=O)N1CCOc2ccc(NC(=O)C3CC3)cc2C1`, the figure is 757 s; as for `COC(=O)c1ccc(NC(=O)CSc2nnc(-c3cccs3)o2)cc1`, 648 s; as for `CC(CNC(=O)Cc1csc2nc(-c3ccccc3)cn12)c1ccccc1` (stereo not drawn), 841 s. Next, `Cc1nnc(-c2ccc3ccn(CC(=O)Nc4ccc(F)c(Cl)c4)c3c2)o1`: 861 s; `CC(C)CCNC(=O)C1CCCN(c2ccc(=O)n(-c3cccc(F)c3)n2)C1` (stereo not drawn): 868 s. Next, `COc1ccc(OC)c(-c2csc(-c3nnn(-c4ccc(F)cc4)c3N)n2)c1`: 1090 s; `COc1ccc(NC(=O)c2cnc3c(c2)c(=O)n(C)c(=O)n3-c2ccc(C)cc2)cc1`: 900 s; `CCN1CCC(N(Cc2cccs2)C(=O)Nc2cccc(Br)c2)CC1`: 693 s. Turning to `O=C(NC1CCN(Cc2ccccc2)CC1)C1CC(=O)N(CCc2ccccc2)C1` (stereo not drawn), the RP-LC retention time came to 600 s. Next, `CCc1noc2cc(-c3ccccc3)n(C)c(=O)c12`: 950 s; `COCCCNC(=O)C1CCC(=O)N(c2ccc(OC)cc2)C1c1ccc(F)cc1` (stereo not drawn): 609 s. `Cc1nc(-c2ccccc2)cc2nn(CC(=O)Nc3ccccc3Br)c(=O)n12` displayed an RP-LC retention time of 995 s. Next, `CCC(=O)N1CCCC(c2nc(CNC(=O)C(C)C)cs2)C1` (stereo not drawn): 632 s; `O=C(NCC1CCCO1)C1COC2(CCN(C(=O)C3CC3)CC2)N1C(=O)c1ccccc1` (stereo not drawn): 608 s. As for `CN1C(=O)C2CCCCN2c2ccc(C(=O)NCc3ccc4c(c3)OCO4)cc21` (stereo not drawn), the figure is 563 s; as for `O=C(N[C@H]1CN2CCC1CC2)c1ccc(Cl)cc1`, 630 s; as for `CCCc1cnc2c(c1SC(C(C)=O)C(=O)N(C)C)c(=O)n(C)c(=O)n2C` (stereo not drawn), 720 s. Next, `O=C(Nc1ccccc1F)N1C[C@H]2C[C@@H](C1)c1cccc(=O)n1C2`: 610 s; `CCc1ccc(C2=C(C)C(N3CCCN(C(=O)NCCC(C)C)CC3)=NS2(=O)=O)cc1`: 926 s; `COc1ccc(NC(=O)C(C)C2CCN(C(=O)Nc3ccccc3)CC2)cc1Cl` (stereo not drawn): 850 s. Regarding `CC12C=CC(=O)C=C1CCC1C2=CCC2(C)C1CC[C@@H]2C(=O)CN1CCN(c2cc(N3CCCC3)nc(N3CCCC3)n2)CC1` (stereo partly drawn), the RP-LC retention time stood at 732 s.

`CCCCN(C)c1nc(-c2ccc(Cl)cc2Cl)nc2ccccc12` displayed an RP-LC retention time of 893 s.

The compound `CCOC(=O)Cc1csc(NC(=O)CSc2nnc3ccccn23)n1` registered an RP-LC retention time of 617 s.

For `O=C(Cn1ccn2nc(-c3ccccc3)c(CO)c2c1=O)Nc1cccc(Br)c1`, the RP-LC retention time turned out to be 868 s. As for `O=C1NC2(CCN(C(=O)Nc3ccc4c(c3)OCCO4)CC2)Oc2ccccc21`, the figure is 736 s; as for `c1cc(-c2noc(-c3ccc4c(c3)OCO4)n2)cc(N2CCCC2)n1`, 690 s; as for `Cc1cccc(OCC(=O)N2CCc3cc(-c4ccno4)ccc32)c1`, 974 s.

Regarding `CCCOC(=O)C1=C(C)NC2=C(C(=O)C(C(=O)OC)C(C)C2)C1c1ccc(F)cc1` (stereo not drawn), the RP-LC retention time was determined as 958 s. The compound `O=C(Cn1cc(-c2nnc(-c3ccco3)o2)c2ccccc21)N1CCCC1` registered an RP-LC retention time of 724 s. Next, `CN1c2c(Cl)cccc2C(=O)NC12CCN(C(=O)c1ccccc1)CC2`: 768 s; `COc1ccc(-n2c(=O)c(C(=O)Nc3ccccc3)c(O)c3cccnc32)cc1`: 1200 s; `O=C(CSc1nc2scc(-c3ccccc3)c2c(=O)[nH]1)c1ccccc1`: 936 s.

For `O=C(CCS(=O)(=O)c1ccc(Cl)cc1)Nc1nnc(Cc2ccc3c(c2)OCO3)o1`, the RP-LC retention time was determined as 726 s. As for `CCn1c(=O)sc2cc(S(=O)(=O)N3CCC(C(=O)NC4CCCCC4)CC3)ccc21`, the figure is 876 s; as for `CCOc1ccc(NC(=O)Cn2cccc(-c3nc(-c4ccc(Br)cc4)no3)c2=O)cc1`, 1020 s.

`C=CCN(Cc1nc(-c2ccc(C)cc2)no1)C(=O)Nc1ccc(C)cc1` returned an RP-LC retention time of 1100 s. Next, `COC[C@@H]1CN(S(=O)(=O)Cc2ccccc2)C[C@H]1c1ccccn1`: 693 s; `Clc1ccc(-c2nc(NC3CCCCC3)c3ccccc3n2)cc1`: 924 s; `Cc1cc(SCC(=O)Nc2ccccc2Br)nc(-c2ccc(F)cc2)n1`: 1170 s. As for `COC(=O)C1=C(C)NC(C)=C(C(=O)OC2CCCN(Cc3ccccc3)C2)C1c1cccc([N+](=O)[O-])c1` (stereo not drawn), the figure is 844 s; as for `COc1ccc(NC(=O)C2c3cc(OC)c(OC)cc3C(=O)N(C)C2c2cccs2)cc1OC` (stereo not drawn), 744 s; as for `COc1ccc(CNC(=O)N2CC=C(c3cn(C)c4ncccc34)CC2)cc1`, 752 s. As for `CCOC(=O)C1CCC(CNC(=O)Nc2cccc(-c3nnc(-c4ccccc4)o3)c2)CC1` (stereo not drawn), the figure is 975 s.

Take `CCOC(=O)C(C(=O)N1CCN(C)CC1)C1CCCCC1` (stereo not drawn): the RP-LC retention time was 629 s. Next, `Cc1ccc(N2C(=O)CC(N3CCC(C(N)=O)CC3)C2=O)cc1C` (stereo not drawn): 607 s.

With `O=C(Nc1cccc(Cl)c1)c1nnc(CCCC(=O)N2CCN(c3ccccn3)CC2)s1`, the RP-LC retention time stood at 669 s. Next, `O=C(CCc1c(-c2ccc(F)cc2)nc2ccccn12)Nc1cccc(F)c1`: 676 s; `CCN1CCN(c2ncc3c(n2)CC(C)CC3=O)CC1` (stereo not drawn): 575 s.

In turn, `CC(NC(=O)C1CCN(c2cnc3nccnc3c2)CC1)c1ccc(F)cc1` (stereo not drawn) registered an RP-LC retention time of 702 s. As for `N#Cc1cnc2ccc(F)cc2c1N1CCC(C(=O)Nc2ccc(F)cc2)CC1`, the figure is 885 s.

In the case of `COc1ccc(-c2noc(Cn3cnc4c(cnn4-c4ccc(Cl)cc4)c3=O)n2)cc1`, the RP-LC retention time was 1120 s. As for `COc1ccc(C(C)NC(=O)Cn2c(=O)nc(-c3ccccc3)c3ccccc32)cc1OC` (stereo not drawn), the figure is 697 s; as for `O=C(CCC(=O)N1CC2CCCN2c2ccccc21)N1CCN(Cc2ccccc2)CC1` (stereo not drawn), 678 s.

As to `CCc1csc(-c2ccc(N3CCN(C(=O)c4ccc(F)cc4)CC3)nc2)n1`, the RP-LC retention time came out at 921 s. In the case of `Cc1cc(Cl)ccc1S(=O)(=O)N1CCC2(CC1)NCCCN=C2NC1CCCC1`, the RP-LC retention time stood at 810 s.

`c1ccc(-c2nc3nc4c(c(Nc5ccc6c(c5)OCCO6)n3n2)CCCC4)cc1` returned an RP-LC retention time of 970 s. The compound `COc1cc(-c2nc3ncccn3c2NCc2ccc(Cl)cc2)ccc1OC(C)C` displayed an RP-LC retention time of 808 s. Next, `Cc1ccc2[nH]cc(CCN3CC(C(=O)Nc4cccc(F)c4)CC3=O)c2c1` (stereo not drawn): 842 s. `CCCn1c(=O)sc2cc(S(=O)(=O)N3CCC(C(=O)Nc4ccccn4)CC3)ccc21`: the RP-LC retention time is 780 s. With `CCn1cc(-c2nc(CC(=O)Nc3cc(C)ccc3OC)cs2)c2cccnc21`, the RP-LC retention time stood at 1040 s. As for `Cc1cnn(Cc2nc(-c3ccc(NC(=O)c4sccc4C)cc3)oc2C)c1`, the figure is 938 s. As for `O=C1COc2ccccc2N1Cc1nc(-c2cccc(C(F)(F)F)c2)no1`, the figure is 1100 s; as for `CCOC(=O)C(C)NC(=O)NCC(=O)N1CCc2ccccc21` (stereo not drawn), 696 s. Next, `CCCc1sc(NCc2cccc(OC)c2O)nc1-c1cc(C)ccc1C`: 911 s; `Cc1ccccc1NC(=O)Nc1ccc2nnc(C)n2c1`: 662 s. `CCCc1noc(-c2ccc3nnc(CC(=O)Nc4cc(C)cc(C)c4)n3c2)n1` came in with an RP-LC retention time of 947 s.

`CC(C)c1ccc(S(=O)(=O)N(CC(=O)N2CCNCC2)CC2CCCO2)cc1` (stereo not drawn): the RP-LC retention time worked out at 602 s. As for `CCC(O)c1nc2ccccc2n1CC(=O)N(C)c1ccccc1` (stereo not drawn), the figure is 624 s.
